Measured values published in ChEMBL document CHEMBL5257140, “Novel Imidazotriazine Derivatives as IL-17 Modulators for Treating Inflammatory and Autoimmune Disorders” (ACS Med Chem Lett, 2023).

experiment: Inhibition of IL-6 release in IL-17A/TNFalpha-stimulated HDF cells preincubated with IL-17A and TNFalpha for 5 hrs followed by […] to assay plate and measured after 18 to 20 hrs by europium cryptate and Alexa 665 reagent based FRET assay; format: functional, cell-based; conditions: Homo sapiens, NHDF

| IC50 | SMILES |
| --- | --- |
| 5.01 nM | Cc1nonc1C(=O)N[C@H](c1cn2ncc([C@H]3C[C@](C)(O)CCN3C(=O)[C@@H]3CCC(F)(F)CO3)nc2n1)C1CCC(F)(F)CC1 |
| 2.51 nM | Cc1nonc1C(=O)N[C@H](c1cn2ncc([C@@H]3C[C@@](O)(C(F)(F)F)CCN3C(=O)[C@@H]3CCC(F)(F)CO3)nc2n1)C1CCC(F)(F)CC1 |
| 6.31 nM | Cc1nonc1C(=O)N[C@H](c1cn2ncc([C@@H]3COCCN3C(=O)[C@@H]3CCC(F)(F)CO3)nc2n1)C1CCC(F)(F)CC1 |
| 3.98 nM | Cc1nonc1C(=O)N[C@H](c1cn2ncc([C@@H]3COCCN3C(=O)C3CCC(F)(F)CO3)nc2n1)C(C1CC1)C1CC1 (stereo partly specified) |
| 3.98 nM | Cc1nonc1C(=O)N[C@H](c1cn2ncc([C@H]3C[C@H](O)CCN3C(=O)[C@@H]3CCC(F)(F)CO3)nc2n1)C1CCC(F)(F)CC1 |
| 3.98 nM | Cc1nonc1C(=O)N[C@H](c1cn2ncc([C@@H]3C[C@](C)(O)CCN3C(=O)[C@@H]3CCC(F)(F)CO3)nc2n1)C1CCC(F)(F)CC1 |
